Data taken from patent publication US7419780B2, “Methods and assays for screening protein targets” (The Trustees of Columbia University in the City of New York, priority 2000, dated 2008).

What was measured:
Type in all cases: cell-based, S. cerevisiae
Settings in all cases: 1 uM small molecule, difference to activity without small molecule, average of two trials
[1] = molecular target: T1, LexA eDHFR / B42 gly6rGR2 (UniProt P06536+P0ABQ4, C656G/F620S); test: β-galactosidase activity assay, strain V375Y
T1 construct: rat Glucocorticoid Receptor (aa 524-795) with point mutations; expressed in transfected cells; host or cells: S. cerevisiae FY250
T1 sequence (P0ABQ4 1-159): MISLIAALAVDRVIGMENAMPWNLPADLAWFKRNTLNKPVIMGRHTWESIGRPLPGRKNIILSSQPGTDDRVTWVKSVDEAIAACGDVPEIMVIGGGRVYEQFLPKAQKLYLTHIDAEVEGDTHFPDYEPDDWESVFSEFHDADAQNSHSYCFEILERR
T1 sequence (P06536 524-795 F620S/C656G limits assumed): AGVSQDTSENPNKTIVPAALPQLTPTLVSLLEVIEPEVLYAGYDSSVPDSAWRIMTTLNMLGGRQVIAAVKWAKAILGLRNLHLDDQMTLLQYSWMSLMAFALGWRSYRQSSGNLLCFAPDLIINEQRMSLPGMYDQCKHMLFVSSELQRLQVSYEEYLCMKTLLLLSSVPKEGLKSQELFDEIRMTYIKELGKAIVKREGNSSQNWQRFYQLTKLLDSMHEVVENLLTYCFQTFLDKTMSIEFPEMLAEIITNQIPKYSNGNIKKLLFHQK
Text: (§1) Table III explains the components of each strain. Each strain was constructed from the parent yeast strain FY250 and also contains the pMW106 plasmid, which has the LacZ reporter gene that is turned on only in when the LexA DNA binding domain and the B42 activation are brought in tot he vicinity of each other. We use several different strains because we use DHFR from two different species, mDHFR is from murine, while eDHFR is from E. coli. We are asl oable to switch the small moleculebinding domains. For example, the strain containing LexA-eDHFR with B42-rGH2 is a different strain and behaves differently from the strain containing LexA-rGR2 with B42-eDHFR. We also put in short 6 amino acid linkers between the two domains of our protein chimeras and thus these are different strain as well.
(§2) The results in Table IV are averages of two separate trials. Each strain was examined with small molecules and without small molecules. The absolute activity is given as the β-galactisidase activity […]. The average β-galactosidse activity for a strain without small molecule (i.e. the negative control) was about 100 β-galactosidase units.

[2] = molecular target: T2, LexA (GSG)2eDHFR / B42 gly6rGR2 (UniProt P06536+P0ABQ4, C656G/F620S); test: β-galactosidase activity assay, strain V499Y
T2 construct: rat Glucocorticoid Receptor (aa 524-795) with point mutations; expressed in transfected cells; host or cells: S. cerevisiae FY250
T2 sequence (P0ABQ4 1-159): T1 sequence (P0ABQ4 1-159)
T2 sequence (P06536 524-795 F620S/C656G limits assumed): T1 sequence (P06536 524-795 F620S/C656G limits assumed)
Text: as §1, §2

[3] = molecular target: T3, LexA rGR2 / B42 (GSG)2eDHFR (UniProt P06536+P0ABQ4, C656G/F620S); test: β-galactosidase activity assay, strain V509Y
T3 construct: expressed in transfected cells; host or cells: S. cerevisiae FY250 with pMW106 lacZ reporter
T3 sequence (P06536 524-795 F620S/C656G limits assumed): T1 sequence (P06536 524-795 F620S/C656G limits assumed)
T3 sequence (P0ABQ4 1-159): T1 sequence (P0ABQ4 1-159)
Text: as §1, §2

LexA rGR2 / B42 mDHFR = molecular target: T4, LexA rGR2 / B42 mDHFR (UniProt P00375+P06536, C656G/F620S); test: β-galactosidase activity assay, strain V507Y
T4 construct: rat Glucocorticoid Receptor (aa 524-795) with point mutations; expressed in transfected cells; host or cells: S. cerevisiae FY250
T4 sequence (P06536 524-795 F620S/C656G limits assumed): T1 sequence (P06536 524-795 F620S/C656G limits assumed)
T4 sequence (P00375 1-187): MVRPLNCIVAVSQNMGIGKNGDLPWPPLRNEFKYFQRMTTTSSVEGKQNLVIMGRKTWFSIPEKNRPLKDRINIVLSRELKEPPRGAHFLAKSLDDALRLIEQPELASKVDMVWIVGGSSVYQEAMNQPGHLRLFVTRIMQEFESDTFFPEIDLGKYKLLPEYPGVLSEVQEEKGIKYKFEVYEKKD
Text: as §1, §2

[4] = molecular target: T5, LexA mDHFR / B42 (GSG)rGR2 (UniProt P00375+P06536, C656G/F620S); test: β-galactosidase activity assay, strain V497Y
T5 construct: rat Glucocorticoid Receptor (aa 524-795) with point mutations; expressed in transfected cells; host or cells: S. cerevisiae FY250
T5 sequence (P00375 1-187): T4 sequence (P00375 1-187)
T5 sequence (P06536 524-795 F620S/C656G limits assumed): T1 sequence (P06536 524-795 F620S/C656G limits assumed)
Text: as §1, §2

[5] = molecular target: T6, LexA (GSG)2eDHFR / B42 rGR2 (UniProt P06536+P0ABQ4, C656G/F620S); test: β-galactosidase activity assay, strain V498Y
T6 construct: rat Glucocorticoid Receptor (aa 524-795) with point mutations; expressed in transfected cells; host or cells: S. cerevisiae FY250
T6 sequence (P0ABQ4 1-159): T1 sequence (P0ABQ4 1-159)
T6 sequence (P06536 524-795 F620S/C656G limits assumed): T1 sequence (P06536 524-795 F620S/C656G limits assumed)
Text: as §1, §2

[6] = molecular target: T7, LexA (GSG)2mDHFR / B42 (GSG)rGR2 (UniProt P00375+P06536, C656G/F620S); test: β-galactosidase activity assay, strain V504Y
T7 construct: rat Glucocorticoid Receptor (aa 524-795) with point mutations; expressed in transfected cells; host or cells: S. cerevisiae FY250
T7 sequence (P00375 1-187): T4 sequence (P00375 1-187)
T7 sequence (P06536 524-795 F620S/C656G limits assumed): T1 sequence (P06536 524-795 F620S/C656G limits assumed)
Text: as §1, §2

[7] = molecular target: T8, LexA eDHFR / B42 (GSG)rGR2 (UniProt P06536+P0ABQ4, C656G/F620S); test: β-galactosidase activity assay, strain V494Y
T8 construct: rat Glucocorticoid Receptor (aa 524-795) with point mutations; expressed in transfected cells; host or cells: S. cerevisiae FY250
T8 sequence (P0ABQ4 1-159): T1 sequence (P0ABQ4 1-159)
T8 sequence (P06536 524-795 F620S/C656G limits assumed): T1 sequence (P06536 524-795 F620S/C656G limits assumed)
Text: as §1, §2

[8] = molecular target: T9, LexA rGR2 / B42 (GSG)2mDHFR (UniProt P00375+P06536, C656G/F620S); test: β-galactosidase activity assay, strain V511Y
T9 construct: expressed in transfected cells; host or cells: S. cerevisiae FY250 with pMW106 lacZ reporter
T9 sequence (P06536 524-795 F620S/C656G limits assumed): T1 sequence (P06536 524-795 F620S/C656G limits assumed)
T9 sequence (P00375 1-187): T4 sequence (P00375 1-187)
Text: as §1, §2

LexA mDHFR / B42 rGR2 = molecular target: T10, LexA mDHFR / B42 rGR2 (UniProt P00375+P06536, C656G/F620S); test: β-galactosidase activity assay, strain V495Y
T10 construct: rat Glucocorticoid Receptor (aa 524-795) with point mutations; expressed in transfected cells; host or cells: S. cerevisiae FY250
T10 sequence (P00375 1-187): T4 sequence (P00375 1-187)
T10 sequence (P06536 524-795 F620S/C656G limits assumed): T1 sequence (P06536 524-795 F620S/C656G limits assumed)
Text: as §1, §2

C[C@@H]1C[C@H]2C3CCC4=CC(=O)C=C[C@]4(C)[C@@]3(F)[C@@H](O)C[C@]2(C)[C@@]1(O)C(=O)NCCSCCCCCCCCSCC[C@H](NC(=O)c1ccc(N(C)Cc2cnc3nc(N)nc(N)c3n2)cc1)C(=O)O (stereo partly shown) [D8M]
B-gal activity [1]: 5210 β-galactosidase units
B-gal activity [2]: 7012 β-galactosidase units
B-gal activity [3]: 2734 β-galactosidase units
B-gal activity (LexA rGR2 / B42 mDHFR): −6 β-galactosidase units
B-gal activity [4]: 24 β-galactosidase units
B-gal activity [5]: 5442 β-galactosidase units
B-gal activity [6]: 30 β-galactosidase units
B-gal activity [7]: 10568 β-galactosidase units
B-gal activity [8]: −129 β-galactosidase units
B-gal activity (LexA mDHFR / B42 rGR2): 38 β-galactosidase units
